Source: BigSolDB 2.1

CC(=O)c1ccc([N+](=O)[O-])cc1
solubility (mole fraction)
Settings | in acetone | in acetonitrile | in cyclohexane | in ethanol | in ethyl acetate | in isopropanol | in methanol | in n-propanol | in toluene
278.15 K | 0.134 | 0.103 | – | 0.00667 | 0.101 | 0.00349 | 0.00839 | 0.00481 | 0.0674
283.15 K | 0.158 | 0.123 | 0.00154 | 0.00821 | 0.117 | 0.00455 | 0.0102 | 0.00608 | 0.0806
288.15 K | 0.185 | 0.146 | 0.00203 | 0.01 | 0.137 | 0.00577 | 0.0125 | 0.00762 | 0.0959
293.15 K | 0.216 | 0.174 | 0.00259 | 0.0123 | 0.161 | 0.00758 | 0.0155 | 0.00968 | 0.114
298.15 K | 0.25 | 0.206 | 0.00332 | 0.0155 | 0.188 | 0.00978 | 0.0187 | 0.0121 | 0.137
303.15 K | 0.287 | 0.244 | 0.00423 | 0.019 | 0.22 | 0.0128 | 0.0231 | 0.0154 | 0.164
308.15 K | 0.33 | 0.287 | 0.00542 | 0.0236 | 0.257 | 0.0169 | 0.0283 | 0.0194 | 0.195
313.15 K | 0.376 | 0.336 | 0.00694 | 0.0293 | 0.3 | 0.0223 | 0.0343 | 0.0246 | 0.232
318.15 K | 0.428 | 0.389 | 0.0089 | 0.0365 | 0.345 | 0.0296 | 0.0421 | 0.0313 | 0.275

CC(=O)c1cccc([N+](=O)[O-])c1
solubility (mole fraction)
Settings | in acetone | in acetonitrile | in cyclohexane | in ethanol | in ethyl acetate | in isopropanol | in methanol | in n-propanol | in toluene
278.15 K | 0.1 | 0.0717 | – | 0.00487 | 0.0782 | 0.00433 | 0.00642 | 0.00388 | 0.0545
283.15 K | 0.121 | 0.0892 | 0.00124 | 0.00619 | 0.0906 | 0.00517 | 0.00759 | 0.00487 | 0.0657
288.15 K | 0.146 | 0.116 | 0.00159 | 0.00785 | 0.109 | 0.00635 | 0.00928 | 0.00609 | 0.082
293.15 K | 0.179 | 0.147 | 0.00204 | 0.00993 | 0.132 | 0.00778 | 0.0117 | 0.00763 | 0.103
298.15 K | 0.218 | 0.185 | 0.0026 | 0.0125 | 0.159 | 0.00944 | 0.0146 | 0.00975 | 0.128
303.15 K | 0.264 | 0.233 | 0.00333 | 0.0158 | 0.191 | 0.0117 | 0.0183 | 0.0124 | 0.161
308.15 K | 0.319 | 0.292 | 0.0043 | 0.0204 | 0.23 | 0.0145 | 0.0231 | 0.0157 | 0.2
313.15 K | 0.384 | 0.367 | 0.0056 | 0.0262 | 0.277 | 0.018 | 0.0299 | 0.0204 | 0.254
318.15 K | 0.458 | 0.454 | 0.00743 | 0.0355 | 0.341 | 0.023 | 0.0389 | 0.0265 | 0.328
